Legend:
[1] = test system: SK-N-AS cells (MDR− Neuroblastoma); assay: MTS proliferation assay using SK-N-AS cells; format: cell-based; conditions: Homo sapiens, SK-N-AS, read-out: IC50 in SK-N-AS
Description: SK-N-AS cells were plated in appropriate growth medium at 5×10^3 per well in 100 μL in 96 well tissue culture plates, Falcon, one plate for each drug to be tested. Column 1 was blank; it contained medium, but no cells. The plates were incubated overnight at 37° C. in 5% CO2 to allow attachment.
Drug diluted in culture media was added to the cells at a concentration of 0.005 nM to 10 μM, in quadruplicate. After 48-72 hours of drug exposure, the MTS agent was added to all wells and incubated 1-6 hrs (37° C., 5% CO2), depending on cell type, as per CellTiter 96® AQueous Non-Radioactive Cell Proliferation Assay (MTS), Promega. Plates were processed using a Bio-Tek Synergy HT Multi-detection microtiter plate reader at 490 nanometer wavelength and data were processed with KC4V.3 software. Data plots of drug concentration vs. absorbance were plotted and the concentration resulting in 50% inhibition (IC50) was extrapolated for each of the tested compounds.
As summarized in Table 1, the IC50 value for each tested compound in the SK-N-AS cell line was determined. The clinical comparator drug, paclitaxel, was included in the experiment to allow comparison of the results of the candidate compounds to a clinically relevant standard in the taxane class.

[2] = Stability in mouse plasma when added in a lipid emulsion (Liposyn); format: in vitro ADME; conditions: 37° C.
Description: HPLC grade Methanol from Fisher (Fair lawn, NJ, USA). Part No: A452-4 (074833). HPLC grade Water from Fisher (Fair lawn, NJ, USA). Part No: W5-4 (073352). Drug-free mouse, rat and human plasmas were purchased from Innovative Research Inc. (Southfield, Mich., USA). LIPOSYN® I.V. (30% soybean oil and egg yolk phospholipids, Abbott Laboratories) Fat Emulsion from Hospira, Inc. (Lake Forest, Ill.).
Chromatographic separation of the compounds was performed on a Waters Acquity UPLC™ using a BEH C18 column (1.7 μm, 2.1×50 mm). The mobile phase consisted of Methanol: 0.1% Formic acid (80:20). The flow rate was 0.3 ml/min; the sample injection volume was 5 μL, resulting in a 3 minute run time.
The MS instrumentation consisted of a Waters Micromass Quattro Micro™ triple-quadrupole system (Manchester, UK). The MS system was controlled by a 4.0 version of MassLynx software. Ionization was performed in the positive electrospray ionization mode. MS/MS conditions were the following: capillary voltage 3.02 kV; cone voltage 50 v; extractor voltage 5 v; and RF lens voltage 0.5 v. The source and desolvation temperatures were 100° C. and 400° C. respectively, and the desolvation and cone gas flow were 400 and 30 L/hr, respectively.
The selected mass-to-charge (m/z) ratio transitions of the ART 198 used in the selected ion monitoring (SIM) were: for ART 198, 617 (M+K)^+, for ART 273, 589 (M+K)^+, for ART 488, 913 (M+Na)^+, and for ART 489, 957 (M+Na)^+. The dwell time was set at 200 msec. MS conditions were optimized using direct infusion of standard solutions prepared in methanol and delivered by a syringe pump at a flow rate of 20 μL/min.
Samples of 100 μL were collected at time points of 0, 15, 30, 45, 60, 75, 90, 105, 120, 135, 150, 165, 180, 210, 240, 300, 360 and 480 minutes respectively and the reaction was terminated with methanol. In a separate set of experiments the acid labile, lipophilic molecular conjugates were dissolved in a small amount of ethanol and diluted into a lipid emulsion (Liposyn®) and added to mouse and human plasma before incubation and the hydrolysis of the conjugates was similarly measured. Collected plasma samples of 100 μL containing drug were placed in separate Eppendorf micro centrifuge tubes for processing. Methanol (200 μL) was added to extract the drug using the protein precipitation technique. The micro tubes were then vortex mixed for 10 minutes and centrifuged for 15 minutes at a speed of 10,000 rpm (Eppendorf 5415C centrifuge). The supernatant was collected and filtered using a 0.45 μm filter (Waters 13 mm GHP 0.45 μm) before analysis.
Samples were collected at various times and the percent remaining of the acid labile, lipophilic molecular conjugate of the cancer chemotherapeutic agent was determined along with the percent of the chemotherapeutic agent released from the hydrolysis of the conjugate.

Row | Structure (SMILES) | IC50 [1] | percent remaining of initial drug ([2]; 0 min) | percent remaining of initial drug ([2]; 15 min) | percent remaining of initial drug ([2]; 30 min) | percent remaining of initial drug ([2]; 45 min) | percent remaining of initial drug ([2]; 60 min) | percent remaining of initial drug ([2]; 75 min) | percent remaining of initial drug ([2]; 90 min) | percent remaining of initial drug ([2]; 105 min) | percent remaining of initial drug ([2]; 120 min) | percent remaining of initial drug ([2]; 135 min) | percent remaining of initial drug ([2]; 150 min) | percent remaining of initial drug ([2]; 165 min) | percent remaining of initial drug ([2]; 180 min) | percent remaining of initial drug ([2]; 210 min) | percent remaining of initial drug ([2]; 240 min) | percent remaining of initial drug ([2]; 300 min) | percent remaining of initial drug ([2]; 360 min)
1 | CCCCCCCCCCCCCCCC1OCC(COC(=O)O[C@@H]2C(=O)C=C(C)[C@@H]3C[C@H]4OC(=O)C(OC(=O)CC(O)(C(C)C)C(C)C)C5[C@@H](C)[C@@H](O)[C@@]6(O)OC[C@@]54C6[C@@]23C)O1 (some centres unmarked) [ART 488] | 0.33 ± 0.1 nM | 100% | 98.7% | 98.2% | 97.4% | 96.9% | 97.0% | 98.3% | 96.0% | 95.2% | 93.8% | 93.1% | 92.9% | 91.8% | 91.7% | 91.4% | 91.3% | 90.0%
2 | CCCCCCCCCCCCCCCC1OCC(COC(=O)OC2=C(C)[C@@H]3C[C@H]4OC(=O)C(OC(=O)CC5(O)CCCCC5)[C@H]5[C@]6(C(=O)OC)OC[C@]45[C@H]([C@@H](O)[C@@H]6O)[C@@]3(C)CC2=O)O1 (some centres unmarked) [ART 489] | – | 100% | 98.0% | 97.9% | 97.4% | 91.4% | 90.3% | 87.9% | 80.7% | 80.4% | 79.9% | 79.2% | 78.7% | 78.2% | 75.6% | 74.7% | 73.7% | 73.0%

From patent US10172957B2, “Acid-labile lipophilic prodrugs of cancer chemotherapeutic agents” (priority 2011, dated 2019)
